Reference: patent publication US5438052A, “Cephalosporin derivatives” (Hoffmann-La Roche Inc., priority 1991, dated 1995)
≈ marks a conversion by molar mass, not a printed value. Like-named read-outs stand apart in the source and are kept apart here.

Key:
S. aureus Schoch = assay: Experimental systemic septicaemia in the mouse; assay type: in vivo; conditions: Staphylococcus aureus, sc, 96 h
Summary of the method: (§1)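 ED50 in mg/kg s.c. is the Probit-derived dose protecting half the mice, judged on survival 4 days after i.p. challenge (about 5-100× 48 h LD50) in 16-20 g albino mice, 5 per group. Dosing was s.c. in 2% Tween 80 at 1 and 3 h, plus 5 h for P. aeruginosa.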

E. coli 25922 [1] = assay: Experimental systemic septicaemia in the mouse; assay type: in vivo; conditions: 96 h
Summary of the method: as §1

[2] = system: Pseudomonas aeruginosa BA; assay: Experimental systemic septicaemia in the mouse; assay type: in vivo; conditions: sc, 96 h
Summary of the method: as §1

E. cloacae 908SSi = assay: Minimum inhibitory concentration in vitro, agar dilution method; assay type: cell-based; conditions: Enterobacter cloacae
Text: (§2) 1. Minimum Inhibitory Concentration in vitro
(§3) The activities ascertained, minimum inhibitory concentration (MIC) in μg/ml, are compiled in Table 1 hereinafter: […]

E. cloacae 908R = assay: as above; assay type: cell-based; conditions: Enterobacter cloacae
Text: as §2, §3

K. pneumoniae 418 = assay: as above; assay type: cell-based; conditions: Klebsiella pneumoniae
Text: as §2, §3

K. oxytoca 1082 = assay: as above; assay type: cell-based; conditions: Klebsiella oxytoca
Text: as §2, §3

P. aeruginosa BA = assay: as above; assay type: cell-based; conditions: Pseudomonas aeruginosa
Text: as §2, §3

P. mirabilis 2117 = assay: as above; assay type: cell-based; conditions: Proteus mirabilis
Text: as §2, §3

P. aeruginosa MK1184 = assay: as above; assay type: cell-based; conditions: Pseudomonas aeruginosa
Text: as §2, §3

P. aeruginosa 799/61 = assay: as above; assay type: cell-based; conditions: Pseudomonas aeruginosa
Text: as §2, §3

P. aeruginosa 27853 = assay: as above; assay type: cell-based; conditions: Pseudomonas aeruginosa
Text: as §2, §3

S. marcescens 69438 = assay: as above; assay type: cell-based; conditions: Serratia marcescens
Text: as §2, §3

C. freundii 902 = assay: as above; assay type: cell-based; conditions: Citrobacter freundii
Text: as §2, §3

E. aerogenes CF153 = assay: as above; assay type: cell-based; conditions: Klebsiella aerogenes, CF153
Text: as §2, §3

E. cloacae P99 = assay: as above; assay type: cell-based; conditions: Enterobacter cloacae
Text: as §2, §3

S. pyogenes 15 = assay: as above; assay type: cell-based; conditions: Streptococcus pyogenes
Text: as §2, §3

E. coli 25922 [3] = assay: as above; assay type: cell-based; conditions: Escherichia coli
Text: as §2, §3

P. vulgaris 1028 = assay: as above; assay type: cell-based; conditions: Proteus vulgaris
Text: as §2, §3

S. aureus 6538 = assay: as above; assay type: cell-based; conditions: Staphylococcus aureus
Text: as §2, §3

P. aeruginosa 799/WT = assay: as above; assay type: cell-based; conditions: Pseudomonas aeruginosa
Text: as §2, §3

S. pneumoniae BA = assay: as above; assay type: cell-based; conditions: Streptococcus pneumoniae
Text: as §2, §3

SMILES	ED50 (S. aureus Schoch) [mg/kg]	ED50 (E. coli 25922 [1]; Escherichia coli, 25922, sc) [mg/kg]	ED50 [2] [mg/kg]	MIC (E. cloacae 908SSi; 908SSI) [µg/mL]	MIC (E. cloacae 908R; 908R) [µg/mL]	MIC (K. pneumoniae 418; 418) [µg/mL]	MIC (K. oxytoca 1082; 1082) [µg/mL]	MIC (P. aeruginosa BA) [µg/mL]	MIC (P. mirabilis 2117; 2117) [µg/mL]	MIC (P. aeruginosa MK1184; MK1184) [µg/mL]	MIC (P. aeruginosa 799/61; 799/61) [µg/mL]	MIC (P. aeruginosa 27853; 27853) [µg/mL]	MIC (S. marcescens 69438; 69438) [µg/mL]	MIC (C. freundii 902; 902) [µg/mL]	MIC (E. cloacae P99) [µg/mL]	MIC (S. pyogenes 15; 15) [µg/mL]	MIC (E. coli 25922 [3]; 25922) [µg/mL]	MIC (P. vulgaris 1028; 1028) [µg/mL]	MIC (S. aureus 6538; 6538) [µg/mL]	MIC (P. aeruginosa 799/WT; 799/WT) [µg/mL]	also measured
Cc1cc(SCC2=C(C(=O)[O-])N3C(=O)[C@@H](NC(=O)/C(=N\OCc4ccc(O)c(O)c4)c4csc(N)n4)[C@H]3SC2)n2nc(CS(=O)(=O)c3ccc(O)c(O)c3)nc2n1.[Na+] [Example 11, (6R,7R)-7-[(Z)-2-(2-amino-4-thiazolyl)-2-[[(3,4-dihydroxybenzyl)oxy]imino]acetamido]-3-[[[2-[[(3,4-dihydroxyphenyl)sulphonyl]methyl]-5-methyl-s-triazolo[1,5-a]pyrimidin-7-yl]thio]methyl]-8-oxo-5-thia-1-azabicyclo[4.2.0]oct-2-ene-2-carboxylic acid sodium salt (1:1)]	3.5	< 0.05	0.035	4	2	< 0.1	< 0.1	0.12	0.12	< 0.1	< 0.1	< 0.1	0.25	0.12	16	2	< 0.1	0.25	8	0.12	MIC (E. aerogenes CF153): 1 µg/mL
Cc1cc(SCC2=C(C(=O)[O-])N3C(=O)[C@@H](NC(=O)/C(=N\OCc4ccc(O)c(O)c4F)c4csc(N)n4)[C@H]3SC2)n2nc(CS(=O)(=O)c3ccc(O)c(O)c3)nc2n1.[Na+] [Example 12, (6R,7R)-7-[(Z)-2-(2-amino-4-thiazolyl)-2-[[(2-fluoro-3,4-dihydroxybenzyl)oxy]imino]acetamido]-3-[[[2-[[(3,4-dihydroxyphenyl)sulphonyl]methyl]-5-methyl-s-triazolo[1,5-a]pyrimidin-7-yl]thio]methyl]-8-oxo-5-thia-1-azabicyclo[4.2.0]oct-2-ene-2-carboxylic acid sodium salt (1:1)]	6.2	< 0.05	0.028	4	2	< 0.1	0.5	< 0.1	0.12	< 0.1	< 0.1	< 0.1	< 0.1	< 0.1	8	2	< 0.1	0.25	16	< 0.1	MIC (E. aerogenes CF153): 4 µg/mL
Cc1cc(SCC2=C(C(=O)[O-])N3C(=O)[C@@H](NC(=O)/C(=N\OC(C)(C)C(=O)NNC(=O)c4ccc(O)c(O)c4)c4csc(N)n4)[C@H]3SC2)n2nc(CNC(=O)c3ccc(O)c(O)c3)nc2n1.[Na+] [Example 61, (6R,7R)-7-[(Z)-2-(2-amino-4-thiazolyl)-2-[[1-[3-(3,4-dihydroxybenzoyl)carbazoyl]-1-methylethoxy]imino]acetamido]-3-[[[2-[[(3,4-dihydroxybenzoyl)amino]methyl]-5-methyl-s-triazolo[1,5-a]pyrimidin-7-yl]thio]methyl]-8-oxo-5-thiaazabicyclo[4.2.0]oct-2-ene-2-carboxylic acid sodium salt (1:1)]	8.4	< 0.1	0.06	1	0.5	< 0.1	< 0.1	< 0.1	< 0.1	< 0.1	< 0.1	< 0.1	< 0.1	< 0.1	1	1	< 0.1	< 0.1	16	< 0.1	MIC (S. pneumoniae BA): 4 µg/mL
Nc1nc(/C(=N/OCc2cc(=O)c(O)co2)C(=O)N[C@@H]2C(=O)N3C(C(=O)O)=C(CSc4cc(-c5ccc(O)c(O)c5)nc5ccnn45)CS[C@H]23)cs1 [Example 14, (6R,7R)-7-[(Z)-2-(2-amino-4-thiazolyl)-2-[[(5-hydroxy-4-oxo-4H-pyran-2-yl)methoxy]imino]acetamido]-3-[[[5-(3,4-dihydroxyphenyl)pyrazolo[1,5-a]pyrimidin-7-yl]thio]methyl]-8-oxo-5-thia-1-azabicyclo[4.2.0]oct-2-ene-2-carboxylicacid]															16 (≈ 20.9 µM)						ED50 (S. aureus Schoch; S. aureus Schoch, albino mice, s.c. 1 and 3 hours after infection, survival after 4 days, read-out: ED50): > 12 mg/kg; ED50 (E. coli 25922 [1]; Escherichia coli, sc, E. coli 25922, albino mice, s.c. 1 and 3 hours after infection, survival after 4 days, read-out: ED50): 4.4 mg/kg; ED50 ([2]; P. aeruginosa BA, albino mice, s.c. 1, 3 and 5 hours after infection, survival after 4 days, read-out: ED50): 7.1 mg/kg; MIC (E. cloacae 908SSi; E. cloacae 908SSi, agar dilution, read-out: MIC): 1 µg/mL (≈ 1.31 µM); MIC (E. cloacae 908R; E. cloacae 908R, agar dilution, read-out: MIC): 2 µg/mL (≈ 2.62 µM); MIC (K. pneumoniae 418; K. pneumoniae 418, agar dilution, read-out: MIC): 0.06 µg/mL (≈ 0.0785 µM); MIC (K. oxytoca 1082; K. oxytoca 1082, agar dilution, read-out: MIC): 0.12 µg/mL (≈ 0.157 µM); MIC (P. aeruginosa BA; P. aeruginosa BA, agar dilution, read-out: MIC): 4 µg/mL (≈ 5.23 µM); MIC (P. mirabilis 2117; P. mirabilis 2117, agar dilution, read-out: MIC): 0.5 µg/mL (≈ 0.654 µM); MIC (P. aeruginosa MK1184; P. aeruginosa MK1184, agar dilution, read-out: MIC): 16 µg/mL (≈ 20.9 µM); MIC (P. aeruginosa 799/61; P. aeruginosa 799/61, agar dilution, read-out: MIC): 0.06 µg/mL (≈ 0.0785 µM); MIC (P. aeruginosa 27853; P. aeruginosa 27853, agar dilution, read-out: MIC): 4 µg/mL (≈ 5.23 µM); MIC (S. marcescens 69438; S. marcescens 69438, agar dilution, read-out: MIC): 0.25 µg/mL (≈ 0.327 µM); MIC (C. freundii 902; C. freundii 902, agar dilution, read-out: MIC): 1 µg/mL (≈ 1.31 µM); MIC (S. pyogenes 15; S. pyogenes 15, agar dilution, read-out: MIC): 0.5 µg/mL (≈ 0.654 µM); MIC (E. coli 25922 [3]; E. coli 25922, agar dilution, read-out: MIC): 0.12 µg/mL (≈ 0.157 µM); MIC (P. vulgaris 1028; P. vulgaris 1028, agar dilution, read-out: MIC): 0.25 µg/mL (≈ 0.327 µM); MIC (S. pneumoniae BA; S. pneumoniae BA, agar dilution, read-out: MIC): 0.5 µg/mL (≈ 0.654 µM); MIC (S. aureus 6538; S. aureus 6538, agar dilution, read-out: MIC): 16 µg/mL (≈ 20.9 µM); MIC (P. aeruginosa 799/WT; P. aeruginosa 799/WT, agar dilution, read-out: MIC): 1 µg/mL (≈ 1.31 µM)
